Measurements: patent US11103525B2, “Idoxuridine and its analogs as neuroprotectans for the treatment of parkinsonism” (priority 2017, dated 2021)

Tests used:
[1] = tested on: N2a-GPR37-tGFP cells; assay: Cytoprotection against 6-OHDA (MTT assay), N2a-GPR37-tGFP cells; type: cell-based, mouse; conditions: 2 μM pretreatment 72 h, then 6-OHDA 24 h; compared with N2a-WT cells
Protocol: (§1) FIG. 6. GPR37-associated cytoprotection of Idoxuridine against parkinsonian drug 6-OHDA. N2a-WT and N2a-GPR37-tGFP cells were grown in differentiating medium containing either 2 μM idoxuridine, 0.1% DMSO (negative control) or 1 mM dbcAMP (positive control). 72 h later cells were treated with either 6-OHDA (10, 20, 35 100 μM) or vehicle control and incubated for 24 h. Cell viability was quantified by MTT assay. Data are pooled from three independent experiments with 6 technical replicates for each condition and are expressed as means+/−SD. To assess the […] effect of idoxuridine against 6-OHDA-toxicity data were analyzed using a 2-way ANOVA followed by a Bonferroni correction test. Each cell line was statistically analyzed separately, with pretreatment and 6-OHDA treatment as variables; or GPR37 expression and 6-OHDA-treatment as variables. For simplicity, only idoxuridine related significance is indicated; significances between positive and negative controls are not shown; ****p<0.0001, ***p<0.001, **p<0.01. Test compound (5 μL) of desired concentration (Idoxuridine, final concentration 2 μM); positive control (dibutyryl-cAMP, final concentration 1 mM); and negative control (DMSO, final concentration 0.1%) were plated in a 96-well plate. […] Absorbance was measured at 570 nm (formazan product) and at 650 nm (reference) using a Tecan Spark® 10M microplate reader. […]

[2] = tested on: N2a-WT cells; assay: Cytoprotection against 6-OHDA (MTT assay), N2a-WT cells; type: cell-based, mouse; conditions: 2 μM pretreatment 72 h, then 6-OHDA 24 h
Protocol: as §1

[3] = tested on: primary cortical neurons; assay: Cytoprotection against NMDA excitotoxicity (propidium iodide staining); type: cell-based, rat; conditions: 25 μM pretreatment 72 h or 48 h, NMDA 200 μM 30 min
Protocol: FIG. 7: Cytoprotection of Idoxuridine against excitotoxicity of NMDA. Mature primary neurons were pretreated with Idoxuridine (25 μM) or DMSO (ctrl cells) for 72 h or 48 h and subsequently exposed to NMDA (200 μM) for 30 min. Cell viability was assessed by propidium iodide (PI) staining. Both control and treated cells were incubated for 30 min with 6 μM PI which stains nuclei of dead cells. After extensive washing with Tyrode's buffer, samples were fixed and stained with DAPI to visualize all cell nuclei. PI positive cells were counted at several regions on coverslips and expressed as percentage of total cells visualized with DAPI stain. […] Data are expressed as means+/−SD and analyzed by one-way ANOVA with Dunnett's posthoc test. *p<0.001
Primary cortical neurons: Primary cortical neurons were prepared from E18 rat embryos. Cortices were isolated, cleared from meninges and dissociated after incubation in HBSS (Ca^2+ and Mg^2+-free) with 0.25% trypsin for 20 min at 37° C. […]
Mature primary neurons were pretreated with Idoxuridine (25 μM) or DMSO (ctrl cells) for 72 h or 48 h and subsequently exposed to NMDA (200 μM) for 30 min. Cell viability was assessed by propidium iodide (PI) staining. […] PI positive cells were counted at several regions on coverslips and expressed as percentage of total cells visualized with DAPI stain. […]

[4] = tested on: wildtype cells; assay: Cytoprotection against MG132, wildtype cells; type: cell-based, mouse
Protocol: FIG. 8: Cytoprotection of Idoxuridine against MG132. MG132-induced proteasomal inhibition reduced cell viability. […] Data represented as mean+SD. Analysis performed via one-way ANOVA with Neuman-Keuls post-test for both Figures. *** indicates p<0.001. 2 mM 4-PBA used as a positive unspecific control. MG132 is a potent 26S proteasome inhibitor which increases protein accumulation, ROS leakage, induces cell cycle arrest and apoptosis.

[5] = tested on: GPR37-tGFP overexpressing cells; assay: Cytoprotection against Eeyarestatin (EeI), GPR37-tGFP overexpressing cells; type: cell-based, mouse
Protocol: (§2) FIG. 9: Cytoprotection of Idoxuridine against Eel. Eeyarestatin (Eel) is a potent inhibitor of endoplasmic reticulum associated protein degradation (ERAD) pathway, specifically targeting p97. Eel-mediated reduction of cell viability is counteracted by idoxuridine in both GPR37-tGFP overexpressing cells (A) and WT (B) cells. Data represented as mean+SD. Analysis performed via one-way ANOVA with Neuman-Keuls post-test for both Figures. *** indicates p<0.001.
(§3) Eeyarestatin (EeI) is a potent inhibitor of endoplasmic reticulum associated protein degradation (ERAD) pathway, specifically targeting p97.

[6] = tested on: WT cells; assay: Cytoprotection against Eeyarestatin (EeI), WT cells; type: cell-based, mouse
Protocol: as §2, §3

[7] = tested on: GPR37-tGFP overexpressing cells; assay: Cytoprotection against H2O2, GPR37-tGFP overexpressing cells; type: cell-based, mouse; conditions: in-well H2O2 0.00025%, compared with WT cells
Description: FIG. 10: Cytoprotection of Idoxuridine against […]. H2O2 reduces cell viability by increasing oxidative stress. This effect was counteracted by idoxuridine in GPR37-tGFP overexpressing cells (A) and WT (B) cells. […] In-well H2O2 concentration used was 0.00025%. […]

O=c1[nH]c(=O)n([C@H]2C[C@H](O)[C@@H](CO)O2)cc1I [Idoxuridine, 2′-deoxy-5-iodouridine]
cytoprotective effect against 6-OHDA (cell viability, MTT) [1]: significantly higher effect
cytoprotective effect against 6-OHDA (cell viability, MTT) [2]: protective
effect on excitotoxicity induced by NMDA (PI positive cells) [3]: significantly counteracted
effect on MG132-induced reduction of cell viability [4]: some neuroprotection
effect on EeI-mediated reduction of cell viability [5]: counteracted
effect on EeI-mediated reduction of cell viability [6]: counteracted
effect on H2O2-induced reduction of cell viability [7]: significantly stronger
